Results as given in US20230141603A1, “BENZODIAZEPINE DERIVATIVES AS GABA A GAMMA1 PAM” (Hoffmann-La Roche Inc., priority 2021, published 2023).

Target: T1, h-GABAA α2β2γ1 (Homo sapiens, UniProt P47869+Q8N1C3)
T1 sequence (P47869 29-451): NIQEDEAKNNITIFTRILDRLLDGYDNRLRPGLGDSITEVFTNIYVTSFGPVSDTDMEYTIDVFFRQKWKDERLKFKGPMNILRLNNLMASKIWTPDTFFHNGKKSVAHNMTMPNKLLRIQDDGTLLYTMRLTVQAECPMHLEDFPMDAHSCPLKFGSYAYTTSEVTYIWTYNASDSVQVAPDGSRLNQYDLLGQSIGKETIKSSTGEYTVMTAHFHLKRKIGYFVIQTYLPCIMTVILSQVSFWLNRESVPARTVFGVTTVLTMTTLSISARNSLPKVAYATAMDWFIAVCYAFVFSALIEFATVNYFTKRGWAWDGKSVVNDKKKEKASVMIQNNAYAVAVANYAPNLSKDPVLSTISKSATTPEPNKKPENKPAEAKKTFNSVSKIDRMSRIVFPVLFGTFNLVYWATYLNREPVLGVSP
T1 sequence (P47870 25-512 partner limits assumed): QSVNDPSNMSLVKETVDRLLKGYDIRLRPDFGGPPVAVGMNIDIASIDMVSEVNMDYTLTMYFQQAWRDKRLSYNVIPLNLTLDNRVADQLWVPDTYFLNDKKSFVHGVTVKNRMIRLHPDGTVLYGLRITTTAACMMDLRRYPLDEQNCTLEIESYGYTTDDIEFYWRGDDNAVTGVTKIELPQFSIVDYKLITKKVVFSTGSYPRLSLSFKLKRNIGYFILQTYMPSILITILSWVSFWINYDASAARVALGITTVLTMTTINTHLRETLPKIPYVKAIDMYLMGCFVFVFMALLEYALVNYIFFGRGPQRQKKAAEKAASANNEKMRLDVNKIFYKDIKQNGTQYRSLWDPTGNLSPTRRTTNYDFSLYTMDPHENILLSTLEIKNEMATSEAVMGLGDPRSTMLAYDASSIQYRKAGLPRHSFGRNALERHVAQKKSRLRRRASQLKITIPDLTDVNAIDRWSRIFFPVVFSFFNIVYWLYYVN
T1 sequence (Q8N1C3 36-465): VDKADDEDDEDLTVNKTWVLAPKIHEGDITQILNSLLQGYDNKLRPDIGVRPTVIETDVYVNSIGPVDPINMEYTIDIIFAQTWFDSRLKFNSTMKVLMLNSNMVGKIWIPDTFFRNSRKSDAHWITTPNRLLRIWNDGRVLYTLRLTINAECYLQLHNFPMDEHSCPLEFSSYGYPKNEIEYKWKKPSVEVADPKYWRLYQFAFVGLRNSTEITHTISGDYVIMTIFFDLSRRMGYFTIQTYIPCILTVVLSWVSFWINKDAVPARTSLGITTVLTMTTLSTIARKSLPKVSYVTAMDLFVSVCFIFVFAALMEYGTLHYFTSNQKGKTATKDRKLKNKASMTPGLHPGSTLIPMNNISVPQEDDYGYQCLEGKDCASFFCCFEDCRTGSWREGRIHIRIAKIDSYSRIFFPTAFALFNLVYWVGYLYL
Assay: Two-electrode voltage clamp electrophysiology in Xenopus oocytes, modulation of GABA EC20 current
Type: cell-based
Parameters: host or cells: Xenopus laevis oocytes, RNA micro-injection
Settings: Table 2; for Efficacy (GABA)%: % modulation of GABA EC20 = 100*(Fold increase−1), compound at approx. 30-fold Ki; for Fold increase h-GABA-A α2β2γ1 oocyte @ 30-fold Ki: compound at approx. 30-fold its Ki α2β2γ1, GABA EC20, Xenopus oocytes
Method: Xenopus laevis oocytes at maturation stages V-VJ were used for the expression of cloned mRNA encoding GABAA receptor subunits. Oocytes ready for RNA micro-injection were bought from Ecocyte, Castrop-Rauxel, Germany and stored in modified Barth's medium (composition in mM: NaCl 88, KCl 1, NaHCO3 2.4, HEPES 10, MgSO4 0.82, CaNO3 0.33, CaCl2 0.33, pH=7.5) at 20° C. until the experiment.
Oocytes were plated in 96-well plates for microinjection using the Roboinject automated instrument (MultiChannelSystems, Reutlingen, Germany). Approximately 50 nL of an aqueous solution containing the RNA transcripts for the subunits of the desired GABAA receptor subtype was injected into each oocyte. […] Oocytes were kept in modified Barth's medium (composition in mM: NaCl 88, KCl 1, NaHCO3 […], HEPES 10, MgSO4 0.82, CaNO3 0.33, CaCl2 0.33, pH=7.5) at 20° C. until the experiment.
Electrophysiological experiments were performed using the Roboocyte instrument (MultiChannelSystems, Reutlingen, Germany) on days 3 to 5 after the micro-injection of mRNA. During the experiment the oocytes were constantly superfused by a solution containing (in mM) NaCl 90, KCl 1, HEPES 5, MgCl2 1, CaCl2 1 (pH 7.4). Oocytes were impaled by two glass microelectrodes (resistance: 0.5-0.8 MΩ) which were filled with a solution containing KCl 1M+K-acetate 1.5 M and voltage-clamped to −80 mV. The recordings were performed at room temperature using the Roboocyte two-electrode voltage clamp system (Multichannelsystem). After an initial equilibration period of 1.5 min GABA was added for 1.5 min at a concentration evoking approximately 20% of a maximal current response (EC20). After another rest interval of 2.5 min GABA was again added evoking a response of similar amplitude and shape. […] Current traces were recorded at a digitization rate of 10 Hz during and shortly before and after the GABA application.
Each compound and concentration was tested on at least 3 oocytes. Different oocytes were used for different compound concentrations.
For the analysis, the digitized current traces of the first and second GABA response were superimposed and, if necessary, rescaled to equal maximal amplitudes. The ratio between the two responses during the time interval of test compound application was calculated point by point. The extremum of the resulting “ratio trace” was taken as the efficacy (“Fold increase”) of the compound expressed as “% modulation of GABA EC20” (100*(Fold increase−1)).

SMILES	Efficacy (GABA)%	Fold increase h-GABA-A α2β2γ1 oocyte @ 30-fold Ki
O=c1[nH]nc2n1-c1ccc(Br)c(Cl)c1C(c1ccccc1F)=NC2 [Example 26, 8-bromo-7-chloro-6-(2-fluorophenyl)-2,4-dihydro-[1,2,4]triazolo[4,3-a][1,4]benzodiazepin-1-one]	45%	1.45
Cc1nnc2n1-c1ccc(Br)c(Cl)c1C(c1ncccc1F)=NC2 [Example 24, 8-bromo-7-chloro-6-(3-fluoro-2-pyridyl)-1-methyl-4H-[1,2,4]triazolo[4,3-a][1,4]benzodiazepine]	85%	1.85
COc1ccc2c(c1Cl)C(c1c(F)cccc1F)=NCc1nnc(-c3cccnc3)n1-2 [Example 62, 7-chloro-6-(2,6-difluorophenyl)-8-methoxy-1-(3-pyridyl)-4H-[1,2,4]triazolo[4,3-a][1,4]benzodiazepine]	63%	1.63
CO[C@H]1C[C@H](c2nnc3n2-c2ccc(Cl)c(Cl)c2C(c2c(F)cccc2F)=NC3)C1 [Example 91, trans-7,8-dichloro-6-(2,6-difluorophenyl)-1-(3-methoxycyclobutyl)-4H-[1,2,4]triazolo[4,3-a][1,4]benzodiazepine]	58%	1.58
Clc1cccnc1C1=NCc2nnc(-c3cccnn3)n2-c2ccc(Br)c(Cl)c21 [Example 47, 8-bromo-7-chloro-6-(3-chloro-2-pyridyl)-1-pyridazin-3-yl-4H-[1,2,4]triazolo[4,3-a][1,4]benzodiazepine]	314%	4.14
Cl.NCc1nnc2n1-c1ccc(Br)c(Cl)c1C(c1c(F)cccc1F)=NC2 [Example 36, [8-bromo-7-chloro-6-(2,6-difluorophenyl)-4H-[1,2,4]triazolo[4,3-a][1,4]benzodiazepin-1-yl]methanamine hydrochloride]	33%	1.33
Fc1cccc(F)c1C1=NCc2nncn2-c2ccc(Cl)c(Cl)c21 [Example 15, 7,8-dichloro-6-(2,6-difluorophenyl)-4H-[1,2,4]triazolo[4,3-a][1,4]benzodiazepine]	60%	1.60
CC(F)(F)c1ccc2c(c1Cl)C(c1c(F)cccc1F)=NCc1nncn1-2 [Example 21, 7-chloro-8-(1,1-difluoroethyl)-6-(2,6-difluorophenyl)-4H-[1,2,4]triazolo[4,3-a][1,4]benzodiazepine]	100%	2.00
Fc1cccnc1C1=NCc2nnc(-c3cccnn3)n2-c2ccc(Br)c(Cl)c21 [Example 45, 8-bromo-7-chloro-6-(3-fluoro-2-pyridyl)-1-pyridazin-3-yl-4H-[1,2,4]triazolo[4,3-a][1,4]benzodiazepine]	828%	9.28
Cc1nnc2n1-c1ccc(Cl)c(Cl)c1C(c1ccccc1F)=NC2 [Example 4, 7,8-dichloro-6-(2-fluorophenyl)-1-methyl-4H-[1,2,4]triazolo[4,3-a][1,4]benzodiazepine]	73%	1.73
Cc1nnc2n1-c1ccc(C(F)(F)F)c(Cl)c1C(c1c(F)cccc1F)=NC2 [Example 40, 7-chloro-6-(2,6-difluorophenyl)-1-methyl-8-(trifluoromethyl)-4H-[1,2,4]triazolo[4,3-a][1,4]benzodiazepine]	75%	1.75
Fc1cccnc1C1=NCc2nnc(-c3ccncn3)n2-c2ccc(Cl)c(Cl)c21 [Example 55, 7,8-dichloro-6-(3-fluoro-2-pyridyl)-1-pyrimidin-4-yl-4H-[1,2,4]triazolo[4,3-a][1,4]benzodiazepine]	59%	1.59
Fc1cccc(F)c1C1=NCc2nnc(-c3cccnn3)n2-c2ccc(Br)c(Br)c21 [Example 42, 7,8-dibromo-6-(2,6-difluorophenyl)-1-pyridazin-3-yl-4H-[1,2,4]triazolo[4,3-a][1,4]benzodiazepine]	97%	1.97
Fc1ccccc1C1=NCc2nncn2-c2ccc(Br)c(Cl)c21 [Example 8, 8-bromo-7-chloro-6-(2-fluorophenyl)-4H-[1,2,4]triazolo[4,3-a][1,4]benzodiazepine]	58%	1.58
OCc1nnc2n1-c1ccc(Br)c(Cl)c1C(c1c(F)cccc1F)=NC2 [Example 33, [8-bromo-7-chloro-6-(2,6-difluorophenyl)-4H-[1,2,4]triazolo[4,3-a][1,4]benzodiazepin-1-yl]methanol]	80%	1.80
Fc1cccnc1C1=NCc2nnc(-c3ccncn3)n2-c2ccc(Br)c(Cl)c21 [Example 46, 8-bromo-7-chloro-6-(3-fluoro-2-pyridyl)-1-pyrimidin-4-yl-4H-[1,2,4]triazolo[4,3-a][1,4]benzodiazepine]	55%	1.55
Cc1nnc2n1-c1ccc(C(F)F)c(Cl)c1C(c1c(F)cccc1F)=NC2 [Example 25, 7-chloro-8-(difluoromethyl)-6-(2,6-difluorophenyl)-1-methyl-4H-[1,2,4]triazolo[4,3-a][1,4]benzodiazepine]	84%	1.84
Fc1ccccc1C1=NCc2nnc(-c3cccnn3)n2-c2ccc(Cl)c(Cl)c21 [Example 10, 7,8-dichloro-6-(2-fluorophenyl)-1-pyridazin-3-yl-4H-[1,2,4]triazolo[4,3-a][1,4]benzodiazepine]	69%	1.69
